From patent US9980928B2, “Hydroxy aliphatic substituted phenyl aminoalkyl ether derivatives” (PROUS INSTITUTE FOR BIOMEDICAL RESEARCH, S.A., priority 2012, dated 2018) come the findings set out here.

For this test, the system named is fmr1 KO mice and wild type mice. The test is described as follows: Social behavior test in Fragile X (fmr1 KO) mouse model. The format is in vivo. The conditions noted are these: 30 mg/kg i.p. acute. How it is done: FIG. 4A plots the time (s) that the test mouse devotes to exploring two cylinders: a first cylinder containing a familiar genotype-matched juvenile stimulus mouse and a second cylinder containing a novel stimulus mouse and the total time of exploration (both cylinders) during a 10 min session. FIG. 4B Plots the percentage of time spent near the two cylinders during the 10 min session. FIG. 4C plots the Discrimination index (time exploring the novel stimulus−time exploring the familiar stimulus/total time of exploration×100).
N=10-12 mice per group. Mice had received an acute i.p. injection of saline (WT 1st bar, fmr1 KO 3rd bar) or 30 mg/kg Example 2 (Wild Type 2nd bar, fmr1 KO 4th bar) 24 h before the session. Data are expressed as mean±S.E.M. Two way ANOVA Treatment effect Φ p<0.05, Genotype x Treatment interaction p<0.05, Bonferroni as post hoc ***p<0.001, **p<0.01, *p<0.05.
Example 2 effects on social disability in a model of Fmr1 KO was performed. Social behavior was examined on an open-field that consisted of an arena (70 cm long×70 cm wide×30 cm high) made of Plexiglas. An overhead camera connected to the video-tracking software SMART (Panlab, Spain) was used to monitor the animal's behavior. The experimental design included three sessions:
1) Habituation session Animals were habituated for 10 min to an arena containing two empty transparent cylinders (30 cm diameter×40 cm high) made of Plexiglas. The cylinders were perforated to have interaction points and were located on two corners of the open field. Time exploring the cylinders was registered along the 10 min duration. After the habituation session mice received an acute injection of either saline or Example 2 (30 mg/kg i.p.) and replaced on their cages. 2) Social interaction 24 h later, animals were replaced to the arena containing the two cylinders, one cylinder was empty and the other one contained a stranger individual (stimulus). The time exploring the two cylinders was registered for 10 minutes. The stimulus individual was always a juvenile mouse (less than two months of age), to avoid the group hierarchy and aggressiveness towards non familiar individuals that show adult male mice. In addition, the stimulus individual was genotype matched with the testing mouse. The position of the stimulus individual was counterbalanced between animals. After the sociability session mice received an acute injection of either saline or Example 2 (30 mg/kg i.p.). 3) Social recognition 24 h later, animals were replaced to the arena containing the two cylinders, one cylinder contained the same stimulus individual presented during the social interaction session (familiar) and the other contained a novel stimulus individual. Both stimuli were juvenile animals and genotype matched. The position of the familiar stimulus remained the same as it was in the social interaction session, and counterbalanced between animals. Once the subject mice finished the test they remained individually housed in a separate cage until the other cage partner finalized the test, to avoid exposition to olfactory cues from stimuli mice. In all cases, those mice from the same cage were never exposed to the same stimuli, either familiar or novel. The time exploring the two cylinders was registered for 10 minutes. The discrimination index was calculated as time exploring the novel stimulus mouse−time exploring the familiar stimulus mouse/total time of exploration×100. The arena and cylinders were deeply cleaned between animals to avoid olfactory cues. All measures of exploration were manually registered by the experimenter blind to genotype and treatment. Exploratory behavior was defined as the animal directing its nose towards the cylinder at a distance of <2 cm. A proximal zone of 14 cm from the cylinders was defined as interaction zone and the time spent in these zones was registered as index of exploratory behavior.

SMILES strings stand for the structures.

For the molecule `CNCCC(Oc1ccc(CCO)cc1)c1ccccc1.Cl` (single isomer, unassigned) [Example 2, 2-[4-[3-(Methylamino)-1-phenylpropoxy]phenyl]ethanol hydrochloride], where the note is “WT and fmr1 KO mice”, the “time exploring the familiar stimulus (FIG. 4A)” value is reported as “significantly reduced”. Also, under “fmr1 KO mice”, the “social behavior alteration / social abnormalities” value was “completely restored”, the “time exploring the novel stimulus mouse” value is “rose at levels comparable to those detected in wild type animals”, the “time spent near the familiar individual (FIG. 4B)” value is reported as “reducing” and the “time spent near the novel stimulus (FIG. 4B)” value is given as “significantly increased”. The social recognition entry (wild type mice) is reported as “did not modify”.
